Our source for the IC50 values is patent US8288385B2, “6-(3-aza-bicyclo[3.1.0]hex-3-yl)-2-phenyl-pyrimidines” (Actelion Pharmaceuticals Ltd., priority 2009, dated 2012).

This assay has as its target T1, human P2Y12 receptor (Homo sapiens, UniProt Q9H244).
T1 construct: expressed in transfected cells; host or cells: Chinese Hamster Ovary (CHO) cells
As to the kind of experiment: P2Y12 receptor binding assay. To be noted: CHO cells with recombinant expression of the human P2Y12 receptor; tritium-labeled 2-methyl-S-ADP; RT, 2 hours. The procedure:
P2Y12 Receptor Binding Assay
Chinese Hamster Ovary (CHO) cells with recombinant expression of the human P2Y12 receptor were cultured in 24 well cell-culture plates. Cells were washed three times with binding buffer (50 mM Tris pH 7.4, 100 mM NaCl, 1 mM EDTA, 0.5% BSA). The cells were then incubated with 0.5 ml per well binding buffer containing tritium-labeled 2-methyl-thio-adenosine 5′-diphosphate (2-methyl-S-ADP) (between 100,000 and 300,000 dpm per well) and various concentrations of test compounds. After incubation at RT for 2 hours, cells were washed three times with binding buffer. Then, cells were solubilized by addition of 0.5 ml solubilization buffer (SDS, NaOH, EDTA). The content of each well was then transferred into beta-counter vials and 2.0 ml of Ultima Gold Scintillation liquid was added.

T1 sequence (Q9H244 whole entry): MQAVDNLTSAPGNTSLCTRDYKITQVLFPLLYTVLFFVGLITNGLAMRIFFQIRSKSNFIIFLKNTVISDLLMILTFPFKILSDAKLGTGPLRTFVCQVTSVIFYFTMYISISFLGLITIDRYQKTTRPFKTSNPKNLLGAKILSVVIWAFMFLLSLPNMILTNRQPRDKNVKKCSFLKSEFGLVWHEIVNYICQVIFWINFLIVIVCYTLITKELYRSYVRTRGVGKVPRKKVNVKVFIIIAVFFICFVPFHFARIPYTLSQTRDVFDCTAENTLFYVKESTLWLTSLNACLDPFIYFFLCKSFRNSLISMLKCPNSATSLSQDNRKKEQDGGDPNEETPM

In general, IC50 refers to the concentration that inhibits the measured activity by half. For `CCCCOC(=O)N1CCN(C(=O)[C@H](CP(=O)(O)O)NC(=O)c2cc(N3C[C@@H]4[C@H](C3)[C@H]4C(=O)OCC)nc(-c3ccccc3)n2)CC1` [Example 51, (1α,5α,6α)-3-{6-[(R)-2-(4-Butoxycarbonyl-piperazin-1-yl)-2-oxo-1-phosphonomethyl-ethylcarbamoyl]-2-phenyl-pyrimidin-4-yl}-3-aza-bicyclo[3.1.0]hexane-6-carboxylic acid ethyl ester], the IC50 stood at 2.5 nM. `CCCCOC(=O)N1CCN(C(=O)[C@H](CC(C)C)NC(=O)c2cc(N3C[C@@H]4[C@H](C3)[C@@H]4C(=O)O)nc(-c3ccccc3)n2)CC1` [Example 39, (1α,5α,6β)-3-{6-[(S)-1-(4-Butoxycarbonyl-piperazine-1-carbonyl)-3-methyl-butylcarbamoyl]-2-phenyl-pyrimidin-4-yl}-3-aza-bicyclo[3.1.0]hexane-6-carboxylic acid]: the IC50 was found to be 124 nM.

On to `CCCCOC(=O)N1CCN(C(=O)[C@@H](NC(=O)c2cc(N3C[C@@H]4[C@@H](CC(=O)O)[C@@H]4C3)nc(-c3ccccc3)n2)C(C)C)CC1` [Example 24, 4-((S)-2-{[6-((1α,5α,6α)-6-Carboxymethyl-3-aza-bicyclo[3.1.0]hex-3-yl)-2-phenyl-pyrimidine-4-carbonyl]-amino}-3-methyl-butyryl)-piperazine-1-carboxylic acid butyl ester], for which the IC50 was determined as 13 nM. For the molecule `CCCCOC(=O)N1CCN(C(=O)[C@H](Cc2ccccc2)NC(=O)c2cc(N3CC4C(C3)C4C(=O)O)nc(-c3ccccc3)n2)CC1` (stereo partly drawn) [Example 46, (1α,5α,6α)-3-{6-[(S)-1-Benzyl-2-(4-butoxycarbonyl-piperazin-1-yl)-2-oxo-ethylcarbamoyl]-2-phenyl-pyrimidin-4-yl}-3-aza-bicyclo[3.1.0]hexane-6-carboxylic acid], the 50% inhibitory concentration (IC50) was 961 nM. On to `CCCCOC(=O)N1CCN(C(=O)[C@H](CCCC)NC(=O)c2cc(N3C[C@@H]4[C@H](C3)[C@@H]4C(=O)O)nc(-c3ccccc3)n2)CC1` [Example 38, (1α,5α,6β)-3-{6-[(S)-1-(4-Butoxycarbonyl-piperazine-1-carbonyl)-pentylcarbamoyl]-2-phenyl-pyrimidin-4-yl}-3-aza-bicyclo[3.1.0]hexane-6-carboxylic acid], for which the IC50 worked out at 136 nM. Consider `CCCCOC(=O)N1CCN(C(=O)[C@H](CCC(=O)O)NC(=O)c2cc(N3C[C@@H]4[C@H](C3)[C@@H]4C(=O)OCC)nc(-c3ccccc3)n2)CC1` [Example 4, (1α,5α,6β)-3-{6-[(S)-1-(4-Butoxycarbonyl-piperazine-1-carbonyl)-3-carboxy-propylcarbamoyl]-2-phenyl-pyrimidin-4-yl}-3-aza-bicyclo[3.1.0]hexane-6-carboxylic acid ethyl ester], for which the IC50 was determined as 15 nM. On to `CCCCOC(=O)N1CCN(C(=O)[C@H](CP(=O)(OCC)OCC)NC(=O)c2cc(N3C[C@@H]4[C@H](C3)[C@H]4C(=O)OCC)nc(-c3ccccc3)n2)CC1` [Example 50, (1α,5α,6α)-3-{6-[(R)-2-(4-Butoxycarbonyl-piperazin-1-yl)-1-(diethoxy-phosphorylmethyl)-2-oxo-ethylcarbamoyl]-2-phenyl-pyrimidin-4-yl}-3-aza-bicyclo[3.1.0]hexane-6-carboxylic acid ethyl ester], for which the IC50 came to 383 nM. In the case of `CCCCOC(=O)N1CCN(C(=O)[C@@H](NC(=O)c2cc(N3C[C@@H]4[C@H](C3)[C@@H]4C(=O)O)nc(-c3ccccc3F)n2)C(C)C)CC1` [Example 47, (1α,5α,6β)-3-[6-[(S)-1-(4-Butoxycarbonyl-piperazine-1-carbonyl)-2-methyl-propylcarbamoyl]-2-(2-fluoro-phenyl)-pyrimidin-4-yl]-3-aza-bicyclo[3.1.0]hexane-6-carboxylic acid], the half-maximal inhibitory concentration (IC50) turned out to be 12 nM. To `CCCCOC(=O)N1CCN(C(=O)[C@@H](NC(=O)c2cc(N3C[C@@H]4[C@H](C3)[C@@H]4C(=O)O)nc(-c3ccccc3)n2)C(C)(C)C)CC1` [Example 43, (1α,5α,6β)-3-{6-[(S)-1-(4-Butoxycarbonyl-piperazine-1-carbonyl)-2,2-dimethyl-propylcarbamoyl]-2-phenyl-pyrimidin-4-yl}-3-aza-bicyclo[3.1.0]hexane-6-carboxylic acid] belongs 330 nM. As for `CCCCOC(=O)N1CCN(C(=O)[C@@H](NC(=O)c2cc(N3C[C@@H]4[C@H](N)[C@@H]4C3)nc(-c3ccccc3)n2)C(C)C)CC1` [Example 23, 4-((S)-2-{[6-((1α,5α,6β)-6-Amino-3-aza-bicyclo[3.1.0]hex-3-yl)-2-phenyl-pyrimidine-4-carbonyl]-amino}-3-methyl-butyryl)-piperazine-1-carboxylic acid butyl ester], the IC50 stood at 266 nM. As for `CCCCOC(=O)N1CCN(C(=O)C(NC(=O)c2cc(N3CC4C(C3)C4C(=O)O)nc(-c3ccccc3)n2)C(C)O)CC1` [Example 42, (1α,5α,6β)-3-{6-[(1S,2R)-1-(4-Butoxycarbonyl-piperazine-1-carbonyl)-2-hydroxy-propylcarbamoyl]-2-phenyl-pyrimidin-4-yl}-3-aza-bicyclo[3.1.0]hexane-6-carboxylic acid], the IC50 came out at 50 nM.

Consider `CCCCOC(=O)N1CCN(C(=O)[C@H](C)NC(=O)c2cc(N3C[C@@H]4[C@H](C3)[C@H]4C(=O)O)nc(-c3ccccc3)n2)CC1` [Example 34, (1α,5α,6α)-3-{6-[(S)-2-(4-Butoxycarbonyl-piperazin-1-yl)-1-methyl-2-oxo-ethylcarbamoyl]-2-phenyl-pyrimidin-4-yl}-3-aza-bicyclo[3.1.0]hexane-6-carboxylic acid], for which the IC50 was 229 nM. With `CCCCOC(=O)N1CCN(C(=O)[C@@H](NC(=O)c2cc(N3C[C@@H]4[C@H](C3)[C@H]4C(=O)O)nc(-c3ccccc3)n2)C(C)(C)C)CC1` [Example 44, (1α,5α,6α)-3-{6-[(S)-1-(4-Butoxycarbonyl-piperazine-1-carbonyl)-2,2-dimethyl-propylcarbamoyl]-2-phenyl-pyrimidin-4-yl}-3-aza-bicyclo[3.1.0]hexane-6-carboxylic acid], the IC50 turned out to be 903 nM. For the molecule `CCCCOC(=O)N1CCN(C(=O)[C@@H](NC(=O)c2cc(N3C[C@@H]4[C@@H](C#N)[C@@H]4C3)nc(-c3ccccc3)n2)C(C)C)CC1` [Example 18, 4-((S)-2-{[6-((1α,5α,6α)-6-Cyano-3-aza-bicyclo[3.1.0]hex-3-yl)-2-phenyl-pyrimidine-4-carbonyl]-amino}-3-methyl-butyryl)-piperazine-1-carboxylic acid butyl ester], the IC50 worked out at 75 nM. As to `CCCCOC(=O)N1CCN(C(=O)[C@@H](NC(=O)c2cc(N3C[C@@H]4[C@H](C3)[C@@H]4C(=O)O)nc(-c3ccc(F)cc3)n2)C(C)C)CC1` [Example 28, (1α,5α,6β)-3-[6-[(S)-1-(4-Butoxycarbonyl-piperazine-1-carbonyl)-2-methyl-propylcarbamoyl]-2-(4-fluoro-phenyl)-pyrimidin-4-yl]-3-aza-bicyclo[3.1.0]hexane-6-carboxylic acid], the IC50 was 7 nM. Turning to `CCCCOC(=O)N1CCN(C(=O)CNC(=O)c2cc(N3C[C@@H]4[C@H](C3)[C@@H]4C(=O)O)nc(-c3ccccc3)n2)CC1` [Example 33, (1α,5α,6β)-3-{6-[2-(4-Butoxycarbonyl-piperazin-1-yl)-2-oxo-ethylcarbamoyl]-2-phenyl-pyrimidin-4-yl}-3-aza-bicyclo[3.1.0]hexane-6-carboxylic acid], the IC50 came to 68 nM. Take `CCCCOC(=O)N1CCN(C(=O)[C@@H](NC(=O)c2cc(N3C[C@@H]4[C@H](C3)[C@@H]4C(N)=O)nc(-c3ccccc3)n2)C(C)C)CC1` [Example 20, 4-((S)-2-{[6-((1α,5α,6β)-6-Carbamoyl-3-aza-bicyclo[3.1.0]hex-3-yl)-2-phenyl-pyrimidine-4-carbonyl]-amino}-3-methyl-butyryl)-piperazine-1-carboxylic acid butyl ester]: the concentration for half-maximal inhibition (IC50) came to 20 nM.

For the molecule `CCCCOC(=O)N1CCN(C(=O)[C@H](CCC(=O)O)NC(=O)c2cc(N3C[C@@H]4[C@H](C3)[C@H]4NC(=O)OC(C)(C)C)nc(-c3ccccc3)n2)CC1` [Example 5, 4-((S)-2-{[6-((1α,5α,6α)-6-tert-Butoxycarbonylamino-3-aza-bicyclo[3.1.0]hex-3-yl)-2-phenyl-pyrimidine-4-carbonyl]amino}-4-carboxy-butyryl)-piperazine-1-carboxylic acid butyl ester], the IC50 is 6.2 nM. Regarding `CCCCOC(=O)N1CCN(C(=O)[C@H](CP(=O)(N[C@@H](C)C(=O)OCC)N[C@@H](C)C(=O)OCC)NC(=O)c2cc(N3C[C@@H]4[C@H](C3)[C@H]4C(=O)OCC)nc(-c3ccccc3)n2)CC1` [Example 53, N,N′-Bis-((S)-1-Ethoxycarbonylethyl)-(R)-2-[(4-[(1α,5α,6α)-6-ethoxycarbonyl-3-aza-bicyclo[3.1.0]hex-3-yl]-2-phenyl-pyrimidin-6-carbonyl)-amino]-3-oxo-3-(4-butoxy-carbonyl-piperazin-1-yl)-propyl-phosphonic acid diamide], the IC50 worked out at 110 nM. Take `CCCCOC(=O)N1CCN(C(=O)[C@H](CCC(=O)O)NC(=O)c2cc(N3C[C@@H]4[C@@H](CO)[C@@H]4C3)nc(-c3ccccc3)n2)CC1` [Example 9, 4-((S)-4-Carboxy-2-{[6-((1α,5α,6α)-6-hydroxymethyl-3-aza-bicyclo[3.1.0]hex-3-yl)-2-phenyl-pyrimidine-4-carbonyl]-amino}-butyryl)-piperazine-1-carboxylic acid butyl ester]: the IC50 is 8 nM. In the case of `CCCCOC(=O)N1CCN(C(=O)[C@@H](NC(=O)c2cc(N3C[C@@H]4[C@H](C3)[C@H]4C(N)=O)nc(-c3ccccc3)n2)C(C)C)CC1` [Example 17, 4-((S)-2-{[6-((1α,5α,6α)-6-Carbamoyl-3-aza-bicyclo[3.1.0]hex-3-yl)-2-phenyl-pyrimidine-4-carbonyl]-amino}-3-methyl-butyryl)-piperazine-1-carboxylic acid butyl ester], the IC50 came out at 13 nM.
